Tested on: rabbit fetuses
Test: animal tests, rabbit fetuses under hypoxic conditions
Format: in vivo

## Cc1cc(N)nc(C[C@@H]2CNC[C@@H]2OCCNCCc2cccc(F)c2)c1 [Compound 1]
  neurological damage to rabbit fetuses: remarkable reduction in neurological damage

Source: patent publication US9212161B2, “Chiral synthesis of pyrrolidine core compounds en route to neuronal nitric oxide synthase inhibitors” (Northwestern University, priority 2010, dated 2015)
